From ChEMBL document CHEMBL1156023, “Grassystatins A-C from marine cyanobacteria, potent cathepsin E inhibitors that reduce antigen presentation” (J Med Chem, 2009)
Square brackets hold non-standard residues; d marks the D form. Peptide text beside a SMILES is read from it. Hmp(2R,3S) = CC[C@H](C)[C@@H](O)C(=O)O; Sta = CC(C)C[C@H](N)[C@@H](O)CC(=O)O; dNMeF = CN[C@H](Cc1ccccc1)C(=O)O; NMeQ = CN[C@@H](CCC(N)=O)C(=O)O

Experiments:
[1] = biological target: Disintegrin and metalloproteinase domain-containing protein 9 (Homo sapiens, UniProt Q13443); assay: Inhibition of ADAM9
Sequence of Disintegrin and metalloproteinase domain-containing protein 9 (Q13443 whole entry, the tested form may be a part): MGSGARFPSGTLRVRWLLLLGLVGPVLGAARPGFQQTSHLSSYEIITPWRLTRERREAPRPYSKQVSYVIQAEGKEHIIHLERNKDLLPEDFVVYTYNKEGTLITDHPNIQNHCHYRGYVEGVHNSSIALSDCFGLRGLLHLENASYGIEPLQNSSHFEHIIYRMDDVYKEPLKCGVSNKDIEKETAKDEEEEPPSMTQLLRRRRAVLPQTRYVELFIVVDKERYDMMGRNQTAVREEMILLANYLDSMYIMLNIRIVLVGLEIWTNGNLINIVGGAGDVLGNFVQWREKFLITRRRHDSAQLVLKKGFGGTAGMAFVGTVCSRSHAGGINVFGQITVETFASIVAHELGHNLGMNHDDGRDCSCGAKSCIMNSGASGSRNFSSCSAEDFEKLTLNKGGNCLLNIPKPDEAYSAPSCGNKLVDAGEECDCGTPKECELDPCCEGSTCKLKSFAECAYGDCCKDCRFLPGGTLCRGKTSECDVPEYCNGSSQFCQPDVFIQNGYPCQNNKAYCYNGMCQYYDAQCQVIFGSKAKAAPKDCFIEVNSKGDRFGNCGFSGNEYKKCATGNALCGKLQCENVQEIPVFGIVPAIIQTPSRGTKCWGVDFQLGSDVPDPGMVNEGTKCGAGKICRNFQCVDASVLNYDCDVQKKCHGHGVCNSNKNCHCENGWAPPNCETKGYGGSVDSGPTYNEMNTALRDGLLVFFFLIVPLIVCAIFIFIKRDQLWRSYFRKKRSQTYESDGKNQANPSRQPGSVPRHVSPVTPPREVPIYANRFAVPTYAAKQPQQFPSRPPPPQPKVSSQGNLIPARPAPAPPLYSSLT

[2] = biological target: Disintegrin and metalloproteinase domain-containing protein 10 (Homo sapiens, UniProt O14672); assay: Inhibition of ADAM10
Sequence of Disintegrin and metalloproteinase domain-containing protein 10 (O14672 whole entry, the tested form may be a part): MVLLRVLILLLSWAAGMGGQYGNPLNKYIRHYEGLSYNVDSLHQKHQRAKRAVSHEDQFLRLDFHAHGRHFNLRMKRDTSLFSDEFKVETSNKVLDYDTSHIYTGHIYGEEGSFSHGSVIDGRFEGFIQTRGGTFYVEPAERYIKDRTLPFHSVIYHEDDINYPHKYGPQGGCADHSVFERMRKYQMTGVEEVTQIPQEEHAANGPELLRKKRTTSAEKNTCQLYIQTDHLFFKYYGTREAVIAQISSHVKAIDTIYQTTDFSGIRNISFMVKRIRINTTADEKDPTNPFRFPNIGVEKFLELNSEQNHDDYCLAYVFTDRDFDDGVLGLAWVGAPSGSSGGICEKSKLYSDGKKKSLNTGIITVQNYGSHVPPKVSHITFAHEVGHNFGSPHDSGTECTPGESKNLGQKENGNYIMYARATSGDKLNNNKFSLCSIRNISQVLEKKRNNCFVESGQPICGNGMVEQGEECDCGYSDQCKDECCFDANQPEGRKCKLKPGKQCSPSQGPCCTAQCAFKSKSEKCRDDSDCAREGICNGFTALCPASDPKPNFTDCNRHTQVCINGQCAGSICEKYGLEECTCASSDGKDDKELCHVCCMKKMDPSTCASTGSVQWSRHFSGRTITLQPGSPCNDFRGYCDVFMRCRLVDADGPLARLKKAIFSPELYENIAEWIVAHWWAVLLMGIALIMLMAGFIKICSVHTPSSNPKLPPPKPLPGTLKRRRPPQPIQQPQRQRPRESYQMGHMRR

SMILES: CC[C@H](C)[C@H](NC(=O)C[C@H](O)[C@H](CC(C)C)NC(=O)[C@H](CCC(N)=O)N(C)C(=O)[C@H](CC(C)C)NC(=O)[C@H](O)[C@@H](C)CC)C(=O)NCC(=O)N(C)[C@H](Cc1ccccc1)C(=O)N1CCC[C@H]1C(=O)OC [GRASSYSTATIN C] ({Hmp(2R,3S)}-L[NMeQ][Sta]IG[dNMeF]P-OMe)
- IC50 [1]: > 100 µM
- IC50 [2]: > 100 µM
